Assay results from US4315027A, “Pesticidal symmetrical and asymmetrical sulfinyldicarbamates containing a heterocyclic group” (priority 1980, dated 1982).

System: mosquito larvae, Culex pipiens
Test: Larvicidal activity against mosquito larvae in water
Type: in vivo
Details: 1 ml acetone solution in 100 ml water, 3rd instar larvae
Method: Representative compounds of the N,N'-sulfinyldicarbamate esters of the invention were tested for insecticidal activity against two insect species, house flies, Musca domestica, and mosquito larvae, Culex pipiens. Stock 1% concentrated solutions of each of the test compounds were made in acetone, and such solutions diluted with acetone to a concentration of 0.001-0.1%. House flies were treated topically on the notum by 1 μl of each of the diluted acetone solutions and percent mortality was counted 24 hours after application. Insects were held at a constant temperature of 60° F. Larvicidal activity was determined by applying 1 ml of the acetone solution in 100 ml of water containing 20 3rd instar mosquito larvae. Results are presented as LD50 in μg/g for house flies and LC50 in ppm for mosquito larvae.

Row | Structure (SMILES) | Culex LC50 [ppm]
1 | CCOC(=O)N(C)[S+]([O-])N(C)C(=O)Oc1cccc2c1OC(C)(C)C2 (stereo not drawn) [VIII, 2,3-dihydro-2,2-dimethylbenzofuranyl-7 N-[N'-(ethoxycarbonyl)-N'-(methylaminosulfinyl)]-N-methylcarbamate] | 0.04
2 | CCCCCCCOC(=O)N(C)[S+]([O-])N(C)C(=O)Oc1cccc2c1OC(C)(C)C2 (stereo not drawn) [X, 2,3-dihydro-2,2-dimethylbenzofuranyl-7 N-[N'-(n-heptoxycarbonyl)-N'-(methylaminosulfinyl)]-N-methylcarbamate] | 0.015
3 | CCCOC(=O)N(C)[S+]([O-])N(C)C(=O)Oc1ccccc1OC(C)C (stereo not drawn) [XI, 2-isopropoxyphenyl N-[N'-(n-propoxycarbonyl)-N'-(methylaminosulfinyl)]-N-methylcarbamate] | 0.18
